Where two headings read alike, the source gives them in different places. Marks after values point to notes of the source that are not given here. A value given as a limit tells only on which side of the number the result lay.

The subject of one data set is CCRF-CEM/VBL100. Briefly: cells. It counts as cell-based, human. The following applies: for IC50: read-out: IC50. On the procedure:
(§1) The drug-resistant cell lines were continuously cultured in the presence of the selecting agent, AD, DX, VBL or VM to maintain the drug resistant phenotypes. […] All cells were cultured in RPMI 1640-10% FBS at 37° C. 5% CO2 (see below).
(§2) The cells were cultured at an initial density of 5×10^4 cells/mL. They were maintained in a 5% CO2-humidified atmosphere at 37° C. in RPMI-1640 medium (GIBCO-BRL, Gaithersburg, Md.) containing penicillin (100 U/mL), streptomycin ([…]) (GIBCO-BRL) and 10% heat inactivate fetal bovine serum. Culture for cell suspension (such as for CCRF-CEM, P388 and sublines), were performed by the XTT-microculture tetrazonium method (Scudiero, D. A. et al., Cancer Res. 1988, 48, 4827-4833) in duplicate in 96-well microtiter plates.
(§3) 2′,3′-Bis(methoxy-4-nitro-5-sufophenyl)-5-[(phenylamino)carbonyl]2H-tetrazolium hyudroxide (XTT) was prepared at 1 mg/mL in prewarmed (37° C.) medium without serum. Phenazine methosulfate (PMS) and fresh XTT were mixed together to obtain 0.025 mM PMS-XTT solution (25 μL of the stock 5 mM PMS was added per 5 mL of 1 mg/mL XTT). Following a 72 h incubation, 50 μL of the assay aliquots were added to each well of the cell culture. After incubation at 37° C. for 4 h, absorbance at 450 nm and 630 nm was measured with a microplate reader (EL340, Bio-Tek Instruments, Inc., Winooski, Vt.).

Another data set has as its system CCRF-CEM/VM1. Briefly: cells. Particulars: for IC50: read-out: IC50. Format: cell-based, human. How it is done:
as §1, §2, §3

The subject of data set [1] is CCRF-CEM human T-cell acute lymphoblastic leukemia cell line. The experiment in a line: XTT cytotoxicity (cell growth inhibition), CCRF-CEM. The following applies: for times less active than corresponding epothilone A counterpart (cytotoxicity): see Table 1. On the procedure: The DC-3F hamster lung fibroblast cell line and its actinomycin D-selected sublines (DC-3F/ADII and DC-3F/ADX) were obtained from the Memorial Sloan-Kettering Cancer Center (MSKCC).
as §1, §2, §3
On the technique in general: Formazan colour is commonly taken as a measure of viable cells.

Data set [2] concerns human mammary carcinoma MX-1 xenograft. The following applies: MX-1; i.p.; comparison with Camptothecin, VBL, EpoB (order wraps over rows r7-r8). On the procedure:
(§4) DMSO was used as a vehicle for epothilones. Each mouse received ≦40 μL DMSO in all experiments.
(§5) Athymic nude mice (nu/nu) were used for MX-1 and MCF-7/Adr human mammary carcinoma xenografts. Mice were obtained from Taconic Laboratory Animals and Service (Germantown, N.Y.: outbred, Swiss background).

The test system of data set [3] is MDR human mammary adenocarcinoma MCF-7/Adr xenograft. The experiment in a line: in vivo. On the procedure: as §4, §5
Setting [4] is: camptothecin 3 mg/kg i.p. Q2Dx5 from day 8, day 11.
Setting [5] is: camptothecin 3 mg/kg i.p. Q2Dx5 from day 8, day 13.
Where [6] appears, read: camptothecin 3 mg/kg i.p. Q2Dx5 from day 8, day 15.
The mark [7] stands for this setting: camptothecin 3 mg/kg i.p. Q2Dx5 from day 8, day 17.
Setting [8] is: high doses: Taxol 12, Adriamycin 3, Camptothecin 3.0 mg/kg i.p. day 8,10,12,14,16.

Broadly, the IC50 is the concentration that gives 50% inhibition. Consider `CC(=Cc1csc(C)n1)C(O)CC=CCCCC(C)C(O)C(C)C(=O)C(C)(C)C(O)CC(=O)O` (stereo not drawn) [#12], for which the IC50 was more than 5 µM in the data set with CCRF-CEM/VBL100 (Table 6, single determinations); more than 5 µM with CCRF-CEM/VBL100 (Table 7, CEM/VBL); more than 5 µM in the data set on CCRF-CEM/VM1 (Table 6, single determinations); 0.794 µM in data set [1] (Table 6, single determinations); 0.794 µM in data set [1] (Table 7, CEM).

Regarding `C=CC[C@H](OC(=O)C[C@H](O)C(C)(C)C(=O)[C@H](C)[C@@H](O)[C@@H](C)CCCC(=C)C)/C(C)=C/c1csc(C)n1` [#13], the IC50 worked out at 5.63 µM in the data set with CCRF-CEM/VBL100 (Table 6, single determinations); 5.63 µM in the data set with CCRF-CEM/VBL100 (Table 7, CEM/VBL); 14.5 µM in the data set with CCRF-CEM/VM1 (Table 6, single determinations); 11.5 µM in data set [1] (Table 6, single determinations); 11.5 µM in data set [1] (Table 7, CEM).

On to `C/C(=C\c1csc(C)n1)[C@@H]1C/C=C\CCCC[C@H](O)[C@@H](C)C(=O)C(C)(C)[C@@H](O)CC(=O)O1` [#14, Desmethyldesoxyepothilone A], for which the IC50 in the data set with CCRF-CEM/VBL100 (Table 1, XTT) was 5.75 µM; in the data set with CCRF-CEM/VBL100 (Table 6, single determinations), 5.75 µM; in the data set with CCRF-CEM/VBL100 (Table 7, CEM/VBL), 5.75 µM; with CCRF-CEM/VM1 (Table 1, XTT), 6.29 µM; with CCRF-CEM/VM1 (Table 6, single determinations) it was 6.29 µM; in data set [1] (Table 1, XTT), 5 µM. Moreover, the IC50 in data set [1] (Table 6, single determinations) amounted to 5.42 µM; in data set [1] (Table 7, CEM), 5.42 µM. For the same molecule, in data set [1], the “times less active than corresponding epothilone A counterpart (cytotoxicity)” value is reported as “approximately 200 times”.

As to `C/C(=C\c1csc(C)n1)C1CC2OC2CCCCC(O)C(C)C(=O)C(C)(C)C(O)CC(=O)O1` (stereo not drawn) [#15, 8-Desmethylepothilone A], the IC50 is 2.47 µM in the data set with CCRF-CEM/VBL100 (Table 1, XTT); 2.47 µM with CCRF-CEM/VBL100 (Table 6, single determinations); 2.47 µM in the data set on CCRF-CEM/VBL100 (Table 7, CEM/VBL); 0.764 µM with CCRF-CEM/VM1 (Table 1, XTT); 0.764 µM in the data set with CCRF-CEM/VM1 (Table 6, single determinations); 0.44 µM in data set [1]. Also, the IC50 in data set [1] (Table 1, XTT) came out at 0.439 µM; in data set [1] (Table 6, single determinations), 0.439 µM; in data set [1] (Table 7, CEM) it was 0.439 µM. Also, the “Rel. Value (potency relative to Epo B)” value in data set [1] (CCRF-CEM leukemic cells) is recorded as 1/1257. For the same molecule, the “times less active than corresponding epothilone A counterpart (cytotoxicity)” value in data set [1] is “approximately 200 times”.

On to `C/C(=C\c1csc(C)n1)[C@@H]1C[C@H]2O[C@H]2CCCC[C@H](O)[C@@H](C)C(=O)C(C)(C)[C@@H](O)CC(=O)O1` [#16], for which the IC50 was 16.5 µM in the data set on CCRF-CEM/VBL100 (Table 6, single determinations); 16.5 µM with CCRF-CEM/VBL100 (Table 7, CEM/VBL); 0.976 µM with CCRF-CEM/VM1 (Table 6, single determinations); 7.47 µM in data set [1] (Table 6, single determinations); 7.47 µM in data set [1] (Table 7, CEM).

Consider `CC[C@@]1(O)C(=O)OCc2c1cc1n(c2=O)Cc2cc3ccccc3nc2-1` [Campothecin, camptothecin], for which, in data set [2], the “Therapeutic effect Rank Order” value is “dEpoB > Camptothecin >”. In data set [3] (CPT 3 mg/kg Q2Dx5 i.p.), the toxicity result is listed as “moderate toxicity without lethality”. Besides, the “Therapeutic effect Rank Order” value in data set [3] (MCF-7/Adr, i.p. (order wraps over rows r13-r14)) was “dEpoB >> Camptothecin >”. The “Toxicity Death” value in data set [3] (camptothecin 3 mg/kg i.p. Q2Dx5 from day 8) was 0/6. Also, in data set [3] (setting [4]), the “Average Body Weight Change” value was -0.6 g and the “Average Tumor Size (T/C)” value is on record as 0.95. Also, in data set [3] (setting [5]), the “Average Body Weight Change” value was -0.4 g and the “Average Tumor Size (T/C)” value is reported as 0.76. In data set [3] (setting [6]), the “Average Body Weight Change” value is -0.8 g and the “Average Tumor Size (T/C)” value is listed as 0.61. In data set [3] (setting [7]), the “Average Body Weight Change” value is -0.9 g and the “Average Tumor Size (T/C)” value is recorded as 0.43*. In addition, the tumor size reduction in data set [3] (camptothecin 3 mg/kg, day 17) worked out at 57%. Moreover, in data set [3] (setting [8]), the “Average Body Weight (change), Day 11” value is -0.6 g; the “Average Body Weight (change), Day 13” value is -0.4 g; the “Average Body Weight (change), Day 15” value was -0.8 g; the “Average Body Weight Change, Day 17” value is -0.9 g. In addition, in data set [3] (setting [8]), the “Average Tumor Volume (T/C), Day 11” value is listed as 0.95 T/C; the “Average Tumor Volume (T/C), Day 13” value is 0.76 T/C; the “Average Tumor Volume (T/C), Day 15” value was 0.61 T/C; the “Average Tumor Volume (T/C), Day 17” value stood at 0.43 T/C. Moreover, in data set [3] (setting [8]), the Died is given as 0/6. For the same molecule, in data set [3] (initial weight, first treatment day, high doses: Taxol 12, Adriamycin 3, Camptothecin 3.0 mg/kg i.p. day 8,10,12,14,16), the “Average Body Weight, Day 8” value stood at 24.5 g.

As for epothilone B, the “relative resistance (fold) vs parent cell line” value is “(6.1X)” in the data set with CCRF-CEM/VBL100 (Table 6) and “(3.6X)” with CCRF-CEM/VM1 (Table 6). Also, the IC50 worked out at 0.0021 µM in the data set with CCRF-CEM/VBL100 (Table 6, single determinations); 0.0012 µM in the data set on CCRF-CEM/VM1 (Table 6, single determinations); 0.00033 µM in data set [1] (Table 6, single determinations).
